Where “and” joins values, the source holds several entries; their conditions need not be identical. Equal values may be shown once.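 1) Cells in 96-well plates. 2) Compound, 48 h, 5 concentrations. 3) Linear interpolation between surrounding doses. 4) Unreached endpoint = highest concentration. GI50: concentration for 50% inhibition of growth. TGI: total growth inhibition.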
Key:
Test in all cases: inhibition of tumour cell growth, NCI panel, 48 h
[1] = test system: K-562 leukemia
[2] = test system: TK-10 renal
[3] = test system: CCRF-CEM leukemia
[4] = test system: HOP-62 NSCLC
[5] = test system: 786-0 renal
[6] = test system: OVCAR-5 ovarian
[7] = test system: NCI-H460 lung
[8] = test system: HCC-2998 colon
[9] = test system: SK-OV-3 ovarian
[10] = test system: OVCAR-4 ovarian
[11] = test system: HCT-15 colon
[12] = test system: SR leukemia
[13] = test system: NCI-H23 lung
[14] = test system: MALME-3M melanoma
[15] = test system: NCI/ADR-RES ovarian
[16] = test system: MCF7 breast
[17] = test system: HT29 colon
[18] = test system: MDA-MB-231 breast
[19] = test system: UACC-62 melanoma
[20] = test system: CAKI-1 renal
[21] = test system: PC-3 prostate
[22] = test system: RPMI-8226 leukemia
[23] = test system: COLO 205 colon
[24] = test system: T-47D breast
[25] = test system: UACC-257 melanoma
[26] = test system: NCI-H226 lung
[27] = test system: LOX IMVI melanoma
[28] = test system: SK-MEL-5 melanoma
[29] = test system: KM12 colon
[30] = test system: ACHN renal
[31] = test system: SN12C renal
[32] = test system: SK-MEL-28 melanoma
[33] = test system: UO-31 renal
[34] = test system: HL-60(TB) leukemia
[35] = test system: SW-620 colon
[36] = test system: A549 NSCLC
[37] = test system: DU-145 prostate
[38] = test system: MDA-MB-435
[39] = test system: HCT-116 colon
[40] = test system: U251 CNS
[41] = test system: EKVX NSCLC
[42] = test system: OVCAR-3 ovarian
[43] = test system: A498 renal
[44] = test system: RXF 393 renal
[45] = test system: SNB-75 CNS
[46] = test system: MOLT-4 leukemia
[47] = test system: OVCAR-8 ovarian
[48] = test system: BT-549 breast
[49] = test system: M14 melanoma
[50] = test system: HS 578T breast
[51] = test system: SF-539 CNS
[52] = test system: SF-268 CNS
[53] = test system: SK-MEL-2 melanoma
[54] = test system: IGROV1 ovarian
[55] = test system: SF-295 CNS
[56] = test system: SNB-19 CNS
[57] = test system: NCI-H522 lung
[58] = test system: HOP-92 NSCLC

## COCCN1CCN(Cc2ccc(-c3n[nH]c4c3C(=O)c3c(NC(=O)NN5CCOCC5)cccc3-4)cc2)CC1
[1]
  GI50: 0.032 µM
  TGI: > 10 µM
[2]
  GI50: 0.0199 µM
  TGI: 0.422 µM
[3]
  GI50: 0.0211 µM
[4]
  GI50: 0.0324 µM
  TGI: 2.94 µM
[5]
  GI50: 0.0336 µM
  TGI: > 10 µM
[6]
  GI50: 0.0212 µM
  TGI: > 4.7 µM
[7]
  GI50: 0.0274 µM
  TGI: 0.623 µM
[8]
  GI50: 0.0262 µM
  TGI: 0.274 µM
[9]
  GI50: 0.0457 µM
  TGI: > 9.41 µM
[10]
  GI50: 0.0322 µM
  TGI: 0.932 µM
[11]
  GI50: 0.117 µM
  TGI: 2 µM
[12]
  GI50: 0.00985 µM
  TGI: 0.0599 µM
[13]
  GI50: 0.0227 µM
  TGI: 0.129 µM
[14]
  GI50: 0.0705 µM
[15]
  GI50: 0.713 µM
  TGI: > 10 µM
[16]
  GI50: 0.00766 µM
  TGI: > 5.52 µM
[17]
  GI50: 0.0347 µM
  TGI: 0.299 µM
[18]
  GI50: 0.0194 µM
  TGI: 0.584 µM
[19]
  GI50: 0.0145 µM
  TGI: 0.0462 µM
[20]
  GI50: 0.0277 µM
  TGI: > 10 µM
[21]
  GI50: 0.023 µM
  TGI: > 3.86 µM
[22]
  GI50: 0.0288 µM
  TGI: 0.0833 µM
[23]
  GI50: 0.0151 µM
  TGI: 0.0474 µM
[24]
  GI50: 0.0216 µM
[25]
  GI50: 0.0336 µM
  TGI: 0.281 µM
[26]
  GI50: 0.0329 µM
  TGI: > 2.46 µM
[27]
  GI50: 0.0185 µM
  TGI: 0.12 µM
[28]
  GI50: 0.0269 µM
[29]
  GI50: 0.0278 µM
  TGI: 0.572 µM
[30]
  GI50: 0.0512 µM
  TGI: > 10 µM
[31]
  GI50: 0.0307 µM
  TGI: > 10 µM
[32]
  GI50: 0.0246 µM
  TGI: 0.471 µM
[33]
  GI50: 0.0916 µM
  TGI: 9.36 µM
[34]
  GI50: 0.00888 µM
  TGI: 0.0453 µM
[35]
  GI50: 0.0242 µM
  TGI: > 6.22 µM
[36]
  GI50: 0.0289 µM
  TGI: 0.214 µM
[37]
  GI50: 0.0267 µM
[38]
  GI50: 0.0227 µM
  TGI: 0.424 µM
[39]
  GI50: 0.00897 µM
  TGI: 1.14 µM
[40]
  GI50: 0.0204 µM
[41]
  GI50: 0.0348 µM
[42]
  GI50: 0.0242 µM
[43]
  GI50: 0.0292 µM
  TGI: 0.141 µM
[44]
  GI50: 0.0189 µM
  TGI: 0.0458 µM
[45]
  GI50: 0.0214 µM
  TGI: 0.071 µM
[46]
  GI50: 0.0212 µM
  TGI: 0.228 µM
[47]
  GI50: 0.0309 µM
[48]
  GI50: 0.0308 µM
  TGI: 0.209 µM
[49]
  GI50: 0.0296 µM
  TGI: 0.38 µM
[50]
  GI50: 0.0293 µM
  TGI: 1.22 µM
[51]
  GI50: 0.029 µM
  TGI: 0.086 µM
[52]
  GI50: 0.0318 µM
[53]
  GI50: 0.0212 µM
  TGI: 0.0556 µM
[54]
  GI50: 0.0226 µM
  TGI: 1.19 µM
[55]
  GI50: 0.0345 µM
  TGI: > 10 µM
[56]
  GI50: 0.0298 µM
  TGI: > 10 µM
[57]
  GI50: 0.0194 µM
  TGI: 0.0736 µM

## C[n+]1c(-c2ccc(/C=N/NC(=O)c3ccc(C(=O)N/N=C/c4ccc(-c5cn6ccccc6[n+]5C)cc4)cc3)cc2)cn2ccccc21
[1]
  GI50: 132 µM
  TGI: 259 µM
[2]
  GI50: 228 µM
  TGI: 374 µM
[3]
  GI50: 209 µM
  TGI: > 50 µM and 353 µM
[4]
  GI50: 277 µM
  TGI: 425 µM
[5]
  GI50: 126 µM
  TGI: 53.7 µM and 252 µM
[6]
  GI50: > 1000 µM
  TGI: > 1000 µM
[7]
  GI50: > 1000 µM
  TGI: > 1000 µM
[8]
  GI50: 577 µM
  TGI: > 1000 µM
[9]
  GI50: 281 µM
  TGI: 494 µM
[10]
  GI50: 623 µM
  TGI: > 1000 µM
[11]
  GI50: > 1000 µM
  TGI: > 1000 µM
[12]
  TGI: 218 µM
[13]
  GI50: 297 µM
  TGI: 717 µM
[14]
  GI50: 208 µM
  TGI: > 85.6 µM and 422 µM
[15]
  GI50: 553 µM
  TGI: > 1000 µM
[16]
  GI50: 343 µM
  TGI: > 1000 µM
[17]
  GI50: 137 µM
  TGI: 266 µM
[18]
  GI50: 119 µM
  TGI: 242 µM
[19]
  GI50: 177 µM
  TGI: 316 µM
[20]
  GI50: > 1000 µM
  TGI: > 1000 µM
[21]
  GI50: 169 µM
  TGI: 306 µM
[22]
  GI50: 121 µM
  TGI: 306 µM
[23]
  GI50: > 1000 µM
  TGI: > 1000 µM
[58]
  GI50: 198 µM
  TGI: 362 µM
[24]
  GI50: 372 µM
  TGI: 928 µM
[25]
  GI50: 182 µM
  TGI: 97.5 µM and 322 µM
[26]
  GI50: 124 µM
  TGI: 283 µM
[27]
  GI50: 846 µM
  TGI: > 1000 µM
[28]
  GI50: 155 µM
  TGI: > 94.9 µM and 634 µM
[29]
  GI50: > 1000 µM
  TGI: > 1000 µM
[30]
  GI50: 752 µM
  TGI: > 1000 µM
[31]
  GI50: 213 µM
  TGI: 493 µM
[32]
  GI50: 258 µM
  TGI: 406 µM
[33]
  GI50: 227 µM
  TGI: > 73.3 µM and 955 µM
[34]
  GI50: 2.37 µM
  TGI: 186 µM
[35]
  GI50: > 1000 µM
  TGI: > 1000 µM
[36]
  GI50: 176 µM
  TGI: 314 µM
[37]
  GI50: 206 µM
  TGI: 698 µM
[38]
  GI50: > 1000 µM
  TGI: > 1000 µM
[39]
  GI50: > 1000 µM
  TGI: > 1000 µM
[40]
  GI50: 197 µM
  TGI: 347 µM
[41]
  GI50: > 1000 µM
  TGI: > 1000 µM
[42]
  GI50: > 1000 µM
  TGI: > 1000 µM
[43]
  GI50: 172 µM
  TGI: 70.8 µM and 309 µM
[44]
  GI50: 174 µM
  TGI: > 87.2 µM and 312 µM
[46]
  GI50: 135 µM
  TGI: 292 µM
[47]
  GI50: 184 µM
  TGI: 323 µM
[48]
  GI50: 874 µM
  TGI: > 1000 µM
[49]
  GI50: 623 µM
  TGI: > 1000 µM
[50]
  GI50: > 1000 µM
  TGI: > 1000 µM
[51]
  GI50: 206 µM
  TGI: 349 µM
[52]
  GI50: > 1000 µM
  TGI: > 1000 µM
[53]
  GI50: 270 µM
  TGI: 498 µM
[54]
  GI50: > 1000 µM
  TGI: > 1000 µM
[55]
  GI50: 290 µM
  TGI: 944 µM
[56]
  GI50: 248 µM
  TGI: 517 µM
[57]
  GI50: 186 µM
  TGI: 326 µM

From PubChem BioAssay (NCI)
